Assay results reported in BindingDB's records for doi:10.3109/14756360903179393 (University of Orleans, 2010).

Key:
[1] = target: 5-hydroxytryptamine receptor 7 (Homo sapiens, UniProt P34969); assay: Radioligand Binding Assay
Experimental: (§1) 1H nuclear magnetic resonance (NMR) and 13C NMR spectra were recorded on a Bruker Avance DPX250 spectrometer (250.131 MHz), in CDCl3 and using tetramethylsilane asinternal standard; multiplicities were determined by the DEPT 135 sequence, and chemical shifts are reported in parts per million (ppm). Coupling constants are reported in units of hertz (Hz) if applicable. Infrared (IR) spectra were recorded on a PerkinElmer Paragon 1000 PC Fourier transform infrared (FTIR) spectrometer using NaCl films or KBr pellets. Mass spectra (MS) were recorded on a PerkinElmerSCIEX AOI 300 spectrometer. Flash chromatography was performed on Merck […] (230-400 mesh) silica gel under nitrogen pressure. Thin layer chromatography (TLC)was carried out on Merck silica gel 60 F254 precoated plates. Visualization was made with ultraviolet light at 254 nm.

[2] = target: T1, 5-hydroxytryptamine receptor 1A (Rattus norvegicus, UniProt P19327); assay: Radioligand Binding Assay
T1 sequence (P19327 whole entry): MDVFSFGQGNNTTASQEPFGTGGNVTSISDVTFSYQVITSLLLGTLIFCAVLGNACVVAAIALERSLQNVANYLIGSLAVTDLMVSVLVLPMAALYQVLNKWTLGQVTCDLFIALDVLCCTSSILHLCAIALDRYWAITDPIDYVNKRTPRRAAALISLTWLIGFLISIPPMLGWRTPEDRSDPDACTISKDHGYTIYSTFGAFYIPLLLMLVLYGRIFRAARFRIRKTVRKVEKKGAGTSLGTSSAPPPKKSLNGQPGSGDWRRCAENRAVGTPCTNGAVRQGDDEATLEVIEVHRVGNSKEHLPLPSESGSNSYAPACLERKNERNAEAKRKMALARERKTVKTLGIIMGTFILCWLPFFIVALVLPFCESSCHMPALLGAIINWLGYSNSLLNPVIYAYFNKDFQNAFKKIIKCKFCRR
Experimental: as §1

5-hydroxytryptamine receptor 7, sequence (P34969 whole entry): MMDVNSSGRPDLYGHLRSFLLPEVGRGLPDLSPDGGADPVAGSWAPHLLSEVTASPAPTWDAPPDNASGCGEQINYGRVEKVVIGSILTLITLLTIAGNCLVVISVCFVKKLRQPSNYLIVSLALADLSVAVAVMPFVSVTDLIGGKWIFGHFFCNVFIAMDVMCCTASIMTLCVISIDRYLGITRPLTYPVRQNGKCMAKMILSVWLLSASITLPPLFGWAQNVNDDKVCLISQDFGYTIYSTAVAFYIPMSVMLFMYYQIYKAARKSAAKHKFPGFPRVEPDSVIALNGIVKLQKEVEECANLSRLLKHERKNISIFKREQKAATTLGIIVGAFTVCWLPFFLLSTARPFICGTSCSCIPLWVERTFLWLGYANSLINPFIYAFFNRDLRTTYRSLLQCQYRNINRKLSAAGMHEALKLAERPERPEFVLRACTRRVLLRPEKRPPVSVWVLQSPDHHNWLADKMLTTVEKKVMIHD

SMILES | Ki [1] [µM] | Ki [2] [µM]
O=c1[nH]c2ccccc2n1CCN1CCCN2CCCCC2C1 (stereo unspecified) [1-[2-(Octahydropyrido[1,2-a][1,4]diazepin-2-yl)ethyl]-1,3-dihydrobenzo-imidazol-2-one (8)] | 23.6 | 
c1cnc2c(c1)ccn2CCN1CCCN2CCCCC2C1 (stereo unspecified) [2-(2-Pyrrolo[2,3-b]pyridin-1-ylethyl)decahydropyrido[1,2-a][1,4]diazepine (5)] | 14 | 24.5
Brc1ccc2ccn(CCN3CCCN4CCCCC4C3)c2n1 (stereo unspecified) [2-[2-(6-Bromopyrrolo[2,3-b]pyridin-1-yl)ethyl]decahydropyrido[1,2-a][1,4]diazepine (10)] | 0.492 | 14.9
Clc1ccc2ccn(CCN3CCCN4CCCCC4C3)c2n1 (stereo unspecified) [2-[2-(6-Chloropyrrolo[2,3-b]pyridin-1-yl)ethyl]decahydropyrido[1,2-a][1,4]diazepine (11)] | 0.16 | 15
Clc1nccc2ccn(CCN3CCCN4CCCCC4C3)c12 (stereo unspecified) [2-[2-(7-Chloropyrrolo[2,3-c]pyridin-1-yl)ethyl]decahydropyrido[1,2-a][1,4]diazepine (6)] | 5.31 | 16
c1cc2ccn(CCN3CCCN4CCCCC4C3)c2cn1 (stereo unspecified) [2-[(2-Pyrrolo[2,3-c]pyridin-1-yl)ethyl]decahydropyrido[1,2-a][1,4]diazepine (7)] | > 10 | > 10
